The results in this text go back to US11965100B2, “Aggregation-induced emission luminogens useful for cancer cell discrimination and monitoring” (The Hong Kong University of Science and Technology, priority 2020, dated 2024).

The test system of data set [1] is cancer cells (A549 and HeLa) co-cultured with normal cells (COS7 and HLF). Kind of data set: CLSM imaging of cancer cells co-cultured with normal cells. Format: cell-based. The settings on record: A549 co-cultured with COS7, 2 μM, 30 min. As to the method: (§1) FIG. 5 CLSM images of live cancer cells (A549 and HeLa) co-cultured with normal cells (COS7 and HLF) (A), and the images of A549 and HLF cells seeded on different cover glasses (Scale bar=20 μm) (B) stained with 2 μM IVP-02 for 30 min (Scale bar=50 μm), respectively. λex=488 nm, λem=500-650 nm.
(§2) FIG. 10 CLSM images of live cancer cells (A549) co-cultured with normal cells (COS7) (A), and the images of A549 and HLF cells seeded on different cover glasses Scale bar=20 μm (B) stained with 2 μM IVP-02, 04, 06, 22, 42, and 62 for 30 min Scale bar=50 μm, respectively. (The first column in B is the same as FIG. 3B) λex=488 nm, λem=500-650 nm.
FIG. 11 CLSM images of live cancer cells (HeLa) co-cultured with normal cells (COS7), stained with 2 μM IVP-02, 04, 06, 22, 42, and 62 for 30 min, respectively. λex=488 nm, λem=500-650 nm. Scale bar=20 μm.
FIG. 12 CLSM images of live cancer cells (A549) co-cultured with normal cells (HLF), stained with 2 μM IVP-02, 04, 06, 22, 42, and 62 for 30 min, respectively. λex=488 nm, λem=500-650 nm. Scale bar=20 μm.
(§3) The bioimaging properties of IVP-02 in live cells were investigated by confocal laser scanning microscopy (CLSM). Cancer cells (A549 and HeLa) and normal cells (COS7 and HLF) were stained with IVP-02, respectively. […] So IVP-02 holds the high potential to differentiate cancer and normal cells. To verify this speculation, cancer and normal cells were co-cultured and stained with IVP-02. […] To precisely confirm the selectivity of IVP-02 to cancer cells, cancer cells A549 and normal cells HLF (A549 and HLF are both human lung cells) were seeded on different cover glasses, respectively. Then the two cover glasses were put in the same dish and stained with IVP-02 at the same time.
(§4) Cancer cells A549 co-cultured with normal cells COS7 were stained with these molecules, respectively. […] Then HeLa cells co-cultured with COS7 cells (FIG. 11), and A549 cells co-cultured with HLF cells (FIG. 12) were also stained with these molecules, the results were similar with that in A549 cells co-cultured with COS7 cells. In addition to co-culturing, A549 cells and HLF cells were also seeded on different cover glasses and stained with these molecules. […] Based on the imaging results above, it can be concluded that the selectivity of these IVP molecules to cancer cells is also based on the length of alkyl chain at pyridinium salt side. Lengthening the alkyl chain at the pyridinium salt side will eliminate the selectivity to cancer cells.

For the next data set, the system named is HeLa cells. Kind of data set: Mitochondrion-nucleolus migration on CCCP treatment, HeLa cells. The class given is cell-based. As to conditions: pre-stained 2 μM 30 min, 20 μM CCCP 5 min. The method, then: FIG. 16 Live HeLa cells were pre-stained with 2 μM IVP-02 for 30 min, and treated with 20 μM CCCP for 5 min. Then CCCP was removed away and fresh culture medium was added for another 5 min. λex=488 nm, λem=500-650 nm. Scale bar=20 μm.
FIG. 19 Live HeLa cells were pre-stained with 2 μM IVP-04, 22, 42, 06, 62 for 30 min, and treated with 20 μM CCCP for 5 min. Then CCCP was removed away and fresh culture medium was added for another 5 min, respectively. λex=488 nm, λem=500-650 nm. Scale bar=20 μm.
(§5) Monitoring cell viability is a highly valuable task for the fundamental researches in biology, pathology, and medicine. Then we investigated whether IVP-02 could monitor cell viability. Δψm is a very important indicator to characterize cell viability. With the loss of cell viability, Δψm would decrease, while with the recovery of cell viability, Δψm would also recover to the normal level. […] Carbonyl cyanide m-chlorophenyl hydrazone (CCCP) is a type of protonophore and can cause rapid acidification of mitochondria by collapsing Δψm. Cancer cells A549 were pre-stained with IVP-02 for 30 min. In FIG. 15A, in the beginning, IVP-02 stained mitochondria clearly. […] Hydrogen peroxide (H2O2) can inhibit the oxidation respiratory chain that would cause the loss of cell viability. Then live A549 and HeLa cells were pre-stained with IVP-02, and treated with 10 mM H2O2.
(§6) In addition to IVP-02, we further investigated whether other IVP molecules could monitor the viability of cancer cells through mitochondrion-nucleolus migration was investigated. A549 cells were pre-stained with IVP-04, 22, 42, 06, and 62, respectively, and then CCCP was added.

Data set [2] relates to mitochondria in HeLa and A549 cells. Kind of data set: Co-stain with mitochondrial probe MitoTracker Deep Red FM (MTDR). The class given is cell-based. The settings on record: A549 and HeLa, 2 μM dye, co-stain 0.2 μM MTDR. As to the method: FIG. 6 CLSM images of live HeLa and A549 cells stained with 2 μM IVP-02 and 0.2 μM MTDR, respectively. IVP-02: λex=488 nm, λem=500-650 nm; MTDR: λex=640 nm, λem=650-700 nm. Scale bar=20 μm.
In the above pictures, filamentous structures in cytoplasm of cancer cells were observed, which were typical morphology of mitochondria. Then co-stain experiments with commercial mitochondrial probe MitoTracker™ Deep Red FM (MTDR) were carried out (FIG. 6).
It was speculated that the membrane permeability of the probe was a key factor for its selectivity to cancer cells, since the plasma membrane of cancer cells was reported to be more permeable than normal cells. Consequently, IVP-02 was modified by lengthening the alkyl chain at the pyridine salt side and indole side, respectively, to tune the membrane permeability. The synthetic route to these new IVP molecules is depicted in Scheme 1. Their chemical structures were fully characterized by ^1H NMR, ^13C NMR, and ^19F NMR. Then cancer cells A549 were stained with the five new molecules, respectively. […] The co-stain experiments with MTDR also confirmed their location in mitochondria in A549 cells in FIG. 7C. In addition to A549 cells, the same experiments were also carried in HeLa cells (FIGS. 8 and 9).

Another data set concerns A549 cells. Kind of data set: Mitochondrion-nucleolus migration on CCCP treatment, A549 cells. As to conditions: for migration back to mitochondria after removal of CCCP: A549, CCCP removed, fresh medium 5 min; for migration from mitochondria to nucleolus after addition of CCCP: A549, pre-stained 2 μM 30 min, 20 μM CCCP 5 min. Format: cell-based, human. The method, then: FIG. 15 Live A549 cells (A) and live A549 co-cultured with COS 7 cells, live HeLa co-cultured with COS7 cells (B) were pre-stained with 2 μM IVP-02 for 30 min, and treated with 20 μM CCCP for 5 min. Then CCCP was removed away and fresh culture medium was added for another 5 min. λex=488 nm, λem=500-650 nm. Scale bar=20 μm.
FIG. 18 Live A549 cells were pre-stained with 2 μM IVP-04, 22, 42, 06, 62 for 30 min, and treated with 20 μM CCCP for 5 min. Then CCCP was removed away and fresh culture medium was added for another 5 min, respectively. λex=488 nm, λem=500-650 nm. Scale bar=20 μm.
as §5, §6

For another data set, the system named is A549 and HLF cells. Kind of data set: CLSM imaging of A549 and HLF cells seeded on different cover glasses in the same dish. As to conditions: 2 μM, 30 min. Format: cell-based, human. The method, then: as §1, §2, §3, §4
The subject of another data set is RNA. Kind of data set: RNA fluorescence titration, Scatchard equation. Format: binding. As to conditions: comparison in words. From the text:
FIG. 20 (A) Fluorescence titration (left) of IVP-02 with RNA and the fitted curve (right) according to Scatchard equation. (B) The binding mode of IVP-02 to RNA. (C) Binding constant (k) and binding energy (E) of IVP molecules to RNA.
FIG. 21 Fluorescence titration (left) of IVP-04, 22, 42, 06, and 62 with RNA and the fitted curve (middle) according to Scatchard equation, and the binding mode (right) of them to RNA.
Why IVP-06 and 62 cannot stain the nucleolus in cancer cells to a significant extent? On one hand, when IVP molecules located in mitochondria, in addition to the electrostatic interaction between the cation and inner membrane negative charge of mitochondria, the hydrophobic interaction between alkyl chain and phospholipids also existed. When Δψm decreased, although the electrostatic interaction weakened, the hydrophobic interaction still remained. IVP-06 and 62 have longer alkyl chain than the other four IVP molecules, so the hydrophobic interaction between IVP-06 and 62 and phospholipids is stronger than that of the other four IVP molecules. […] In FIGS. 20A and 21, with the increase of RNA concentration, the fluorescence intensity of all the molecules increases. […] In FIG. 20B and FIG. 21, IVP molecules bound to the minor grooves of RNA, and the binding energy (E) was calculated and summarized in FIG. 20C.

Data set [3] can be described thus: Quantum yield in the solid state. Format: physicochemical. From the text:
IVPI-2 is able to stain mitochondria in healthy live cancer cells. However, when Δψm decreases, IVPI-2 migrates into nucleolus. Since IVPI-2 is target-changeable according to the change of mitochondrial physiology, the chemical structure of IVPI-2 was modified in order to enhance the mitochondria to nucleolus migration. Iodide ion is a well-known effective fluorescent quencher due to its heavy-atom effect. The quantum yield of IVP-02 in the solid state is 4.3%, which is about 3 times than that of IVPI-02 (1.3%). An Exemplary synthetic route to certain embodiments of the compounds described herein is depicted in Scheme 1.

In the case of `CCCCn1cc(/C=C/c2cc[n+](CC)cc2)c2ccccc21` [IVP-42], the “staining of co-cultured cancer and normal cells” value in data set [1] is on record as “only stain A549 cells”. In addition, in the data set with HeLa cells, the “nucleolus staining after addition of CCCP” value (from here on “nucleolus staining”) is “could stain nucleolus”. Besides, the “mitochondrial staining in cancer cells” value in data set [2] is recorded as “can selectively stain mitochondria in cancer cells”. In the data set with A549 cells, the “migration back to mitochondria after removal of CCCP” value (“migration back to mitochondria” for short) is “could migrate back in mitochondria”; the “migration from mitochondria to nucleolus after addition of CCCP” value (shortened to “migration from mitochondria to nucleolus”) is “could enter nucleus and stain nucleolus”.

On to `CCn1cc(/C=C/c2cc[n+](CC)cc2)c2ccccc21` [IVP-22], for which, in data set [1], the “staining of co-cultured cancer and normal cells” value was “only stain A549 cells”. In addition, the “nucleolus staining” value in the data set with HeLa cells is “could stain nucleolus”. Besides, in data set [2], the “mitochondrial staining in cancer cells” value is given as “can selectively stain mitochondria in cancer cells”. For the same compound, in the data set with A549 cells, the “migration back to mitochondria” value was “could migrate back in mitochondria”; the “migration from mitochondria to nucleolus” value was “could enter nucleus and stain nucleolus”.

On to `CCCCCC[n+]1ccc(/C=C/c2c[nH]c3ccccc23)cc1` [IVP-06], for which the “staining of co-cultured cancer and normal cells” value in data set [1] is “can stain both A549 and COS7 cells”. Besides, in the data set on HeLa cells, the “nucleolus staining” value is “cannot”. Moreover, the “mitochondrial staining in cancer cells” value in data set [2] is “can selectively stain mitochondria in cancer cells”. In the data set with A549 and HLF cells, the “staining of A549 and HLF cells on different cover glasses” value is “could stain both A549 and HLF cells”. Besides, in the data set with A549 cells, the “migration from mitochondria to nucleolus” value is on record as “did not enter the nuclear to a substantial degree”. Further, in the data set on RNA, the “binding constant (k) to RNA” value is “lower than that of IVP-02, 04, 22, and 42”.

As for `CCCC[n+]1ccc(/C=C/c2c[nH]c3ccccc23)cc1` [IVP-04], the “staining of co-cultured cancer and normal cells” value in data set [1] was “can stain both A549 and COS7 cells”. Further, in the data set with HeLa cells, the “nucleolus staining” value is “could stain nucleolus”. Further, the “mitochondrial staining in cancer cells” value in data set [2] was “can selectively stain mitochondria in cancer cells”. In addition, the “staining of A549 and HLF cells on different cover glasses” value in the data set with A549 and HLF cells was “could stain both A549 and HLF cells”. Also, in the data set on A549 cells, the “migration back to mitochondria” value is on record as “could migrate back in mitochondria”; the “migration from mitochondria to nucleolus” value is “could enter nucleus and stain nucleolus”.

Consider `CC[n+]1ccc(/C=C/c2c[nH]c3ccccc23)cc1.[I-]` [IVPI-02, reference compound], for which the quantum yield in data set [3] is 1.3%.

Consider `CCCCCCn1cc(/C=C/c2cc[n+](CC)cc2)c2ccccc21` [IVP-62], for which the “staining of co-cultured cancer and normal cells” value in data set [1] was “only stain A549 cells”. In the data set with HeLa cells, the “nucleolus staining” value was “cannot”. Besides, the “mitochondrial staining in cancer cells” value in data set [2] is “can selectively stain mitochondria in cancer cells”. In the data set on A549 cells, the “migration from mitochondria to nucleolus” value is recorded as “did not enter the nuclear to a substantial degree”. In addition, the “binding constant (k) to RNA” value in the data set on RNA is “lower than that of IVP-02, 04, 22, and 42”.
